Results on 8 molecules are retold here after patent US20250091990A1, “DEUTERATED ORGANIC COMPOUNDS AND USES THEREOF” (ENGRAIL THERAPEUTICS, INC., priority 2022, published 2025).

For data set [1], the target named is T1, human Serotonin 5-HT7A receptor (Homo sapiens, UniProt P34969).
T1 construct: expressed in transfected cells; host or cells: CHO-K1
Nature of the data set: Radioligand binding competition, filtration binding assay, 5-HT7A. Conditions: for Ki: CHO-K1 membranes. As for the experimental part:
Radioligand binding experiments are conducted with membrane preparations.

The target of data set [2] is T2, human Serotonin 5-HT1A receptor (Homo sapiens, UniProt P08908).
T2 sequence (P08908 1-422): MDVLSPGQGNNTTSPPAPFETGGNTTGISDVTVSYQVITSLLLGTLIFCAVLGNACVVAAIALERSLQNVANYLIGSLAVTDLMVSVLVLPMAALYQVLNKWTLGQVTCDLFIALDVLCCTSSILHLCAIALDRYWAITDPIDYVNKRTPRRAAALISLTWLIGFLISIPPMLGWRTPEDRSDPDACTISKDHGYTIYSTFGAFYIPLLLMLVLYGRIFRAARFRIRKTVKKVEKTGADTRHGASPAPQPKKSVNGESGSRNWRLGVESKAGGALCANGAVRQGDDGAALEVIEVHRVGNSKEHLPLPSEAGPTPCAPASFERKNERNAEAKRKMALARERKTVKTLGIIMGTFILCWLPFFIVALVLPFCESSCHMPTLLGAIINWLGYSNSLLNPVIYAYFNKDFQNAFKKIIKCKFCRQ
Nature of the data set: cAMP HTRF assay, agonist mode, 5-HT1A. Conditions: % of reference agonist at EC100, average where marked d. Format: cell-based. For orientation: In TR-FRET formats the signal depends on donor and acceptor labels being close together.
Method: (§1) SPA ^35S-GTPgS experiments are conducted with membrane preparations. IP-One and cAMP HTRF assays are conducted with recombinant cell lines.
(§2) Agonist activity of test compounds is expressed as a percentage of the activity of the reference agonist at its EC100 concentration. Antagonist activity of the test compound is expressed as a percentage of the inhibition of reference agonist activity at its EC80 concentration.

Data set [3] concerns the target T3, human Serotonin 5-HT2A receptor (Homo sapiens, UniProt P28223).
T3 construct: expressed in transfected cells; host or cells: CHO-K1
In words: IPOne HTRF assay, agonist mode, 5-HT2A. Format: cell-based. Conditions: for Top % Activation at maximal concentration, 5-HT2A (agonist mode): % of reference agonist at EC100, average where marked d.
Method: as §1, §2

For data set [4], the target named is T3, human Serotonin 5-HT2A receptor. In words: IPOne HTRF assay, antagonist mode, 5-HT2A. In kind it is cell-based. Conditions: IP-one.
Method: IP-One and cAMP HTRF assays are conducted with recombinant cell lines.
as §2
In data set [5] the target is human Dopamine D3 receptor (Homo sapiens, UniProt P35462). Particulars: GTPγS; average where marked d.
Method: as §1, §2
Data set [6] has as its system Adult male Sprague Dawley rats. In words: Headshake response. Format: in vivo, rat. The protocol: Example 9—Headshake Response
Adult male Sprague Dawley rats are used. […] DOI (3 mg/kg) is dissolved in saline and administered IP at a dose volume of 1 ml/kg (10 minutes prior to test).
The headshake response is a rapid, rhythmic shaking of the head in a radial motion. Data are analyzed by ANOVA followed by post hoc analysis where appropriate.

In data set [7] the test system is Adult male Sprague Dawley rats. Nature of the data set: DOI-induced headshake response. Format: in vivo, rat. The protocol: Example 10—DOI-Induced Headshake Response
Adult male Sprague Dawley rats are used. […] DOI (3 mg/kg) is dissolved in saline and administered IP at a dose volume of 1 ml/kg (10 minutes prior to test). Ketanserin (1 mg/kg) is dissolved in saline and injected IP 30 minutes prior to DOI at a dose volume of […].
Rats are then injected with DOI and headshakes are recorded 10 minutes after DOI injection for 10 minutes using video cameras. The headshake response is a rapid, rhythmic shaking of the head in a radial motion. Data is analyzed by ANOVA followed by post hoc analysis where appropriate.

Data set [8] concerns the target T1, human Serotonin 5-HT7A receptor. Nature of the data set: cAMP HTRF assay, antagonist mode, 5-HT7A. Format: cell-based.
A short description of data set [9]: In vitro metabolism, disappearance in pooled cryopreserved human hepatocytes. Format: in vitro ADME. Particulars: 5 μM; for Disappearance without cells (buffer), 0 min, % / Disappearance without cells (buffer), 60 min, % / Disappearance without cells (buffer), 120 min, %: no cell control / buffer; for Disappearance in human hepatocytes, 0 min, % / Disappearance in human hepatocytes, 60 min, % / Disappearance in human hepatocytes, 120 min, %: with cells.
Method: Study compounds are investigated in pooled cryopreserved human (mixed gender) hepatocytes. The incubations are performed using 5 μM initial concentration and sampling at 0, 60, and 120 minute time points. The samples are analyzed using UPLC-QE-orbitrap-MS. Incubation volume: 300 μl in 48-well plate. Number of cells: 1 million viable cells/ml. Test compound: 5 μM (stock solution in DMSO). Incubation medium: pH 7.4, Bioreclamation IVT in vitro KHB medium. Shaking: 600 rpm. Time points: 0, 60, and 120 minutes with and without cells. Temperature: 37° C. Sampling volume: 60 μl. DMSO content in incubation: 0.5%. […] Control: verapamil disappearance rate.
Sample preparation for hepatocyte samples: Samples are centrifuged for 20 min at 2272×g at room temperature and pipetted to a UPLC-plate for analysis.

Data set [10] has as its system Male Sprague Dawley rats. In words: Touchscreen-based rat Probabilistic Reward Task. Format: in vivo. Conditions: 1 mg/kg orally, 4-5 hr prior to session.
From the text: Example 7—Touchscreen-Based Rat Probabilistic Reward Task
The Probabilistic Reward Task (PRT) uses visual discrimination methodology to quantify reward responsiveness to both identify deficits and characterize drug-induced improvements. Groups of rats are trained on the touchscreen-based PRT and exposed to asymmetrical probabilistic contingencies to generate response biases to the richly rewarded stimulus (Pizzagalli, D. et al., Biological Psychiatry, 2005, 57, 319-327; Kangas, B. et al., Translational Psychiatry, 2020, 10(1):285; Wooldridge, L. et al., International Journal of Neuropsychopharmacology, 2021, 24, 409-418).
Male Sprague Dawley rats are used in the present study.
Briefly, a custom-built Plexiglas chamber (25×30×35 cm) is situated in a sound- and light-attenuating enclosure (40×60×45 cm). A 17″ touch-sensitive screen (1739L, ELO TouchSystems, Menlo Park, CA) comprises the inside right-hand wall of the enclosure. An infusion pump (PHM-100-5, Med Associates, St. Albans, VT) outside the enclosure is used to deliver sweetened condensed milk solution into the shallow reservoir of a custom-designed aluminum receptacle. […]
Following line-length discrimination training, probabilistic reinforcement schedules are introduced. […] These probabilistic contingencies are assessed across 5 consecutive sessions prior to initiation of drug testing.
The test system of data set [11] is Adult male Wistar rats. In words: Conditioned Avoidance Response test. In kind it is in vivo, rat.
From the text: Adult male Wistar rats are used.
The Conditioned Avoidance Response (CAR) Test is an animal model screening for antipsychotic drugs.
For data set [12], the target named is human Dopamine D2S receptor (Homo sapiens, UniProt P14416).
Method: as §1, §2
The target in data set [13] is T4, human Dopamine D4.4 receptor (Homo sapiens, UniProt P21917).
T4 sequence (P21917 1-419): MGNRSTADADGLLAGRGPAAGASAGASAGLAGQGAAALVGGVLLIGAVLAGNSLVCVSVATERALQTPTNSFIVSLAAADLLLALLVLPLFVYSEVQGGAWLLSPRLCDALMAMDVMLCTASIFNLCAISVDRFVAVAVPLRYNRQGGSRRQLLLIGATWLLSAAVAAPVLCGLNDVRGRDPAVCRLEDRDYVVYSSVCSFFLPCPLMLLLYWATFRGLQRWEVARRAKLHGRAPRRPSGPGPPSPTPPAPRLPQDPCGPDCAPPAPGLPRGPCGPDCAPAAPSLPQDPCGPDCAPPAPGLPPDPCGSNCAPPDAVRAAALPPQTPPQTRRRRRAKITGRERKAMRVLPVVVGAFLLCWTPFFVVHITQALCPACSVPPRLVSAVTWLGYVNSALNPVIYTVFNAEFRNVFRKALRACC
Particulars: cAMP; average where marked d.
Method: as §1, §2

For data set [14], the target named is T3, human Serotonin 5-HT2A receptor. Nature of the data set: Radioligand binding competition, filtration binding assay, 5-HT2A (labeled ketanserin).
Where [15] appears, read: [3H]-LSD, average where marked c, read-out: Binding 5-HT7A IC50.
[16] abbreviates: numbers in parentheses that were averaged, read-out: Binding 5-HT7A IC50, single determinations.
Setting [17] is: 2.5 and 5 mg/kg orally, 4 hours prior to test.
Setting [18] is: 0.5 mg/kg i.p., 30 minutes prior to test.

Several values for one entry are separate records, joined by “and”; a condition that tells them apart may be missing. Identical values can stand only once. Like-named read-outs stand apart in the source and are kept apart here. Marks after values point to notes of the source that are not given here.

T3 sequence (P28223 whole entry): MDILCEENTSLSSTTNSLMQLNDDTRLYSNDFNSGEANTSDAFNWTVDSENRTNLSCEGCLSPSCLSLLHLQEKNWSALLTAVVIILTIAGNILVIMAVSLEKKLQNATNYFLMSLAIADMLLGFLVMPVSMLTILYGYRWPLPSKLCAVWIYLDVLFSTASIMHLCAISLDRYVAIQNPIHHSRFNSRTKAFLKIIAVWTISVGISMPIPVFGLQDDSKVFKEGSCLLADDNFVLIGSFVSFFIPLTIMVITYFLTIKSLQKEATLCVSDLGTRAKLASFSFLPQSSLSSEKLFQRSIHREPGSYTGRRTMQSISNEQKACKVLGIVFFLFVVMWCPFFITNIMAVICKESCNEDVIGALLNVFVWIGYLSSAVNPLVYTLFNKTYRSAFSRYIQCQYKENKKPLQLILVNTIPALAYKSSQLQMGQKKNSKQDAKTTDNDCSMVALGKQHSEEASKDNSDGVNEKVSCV
T1 sequence (P34969 1-445 isoform P34969-2): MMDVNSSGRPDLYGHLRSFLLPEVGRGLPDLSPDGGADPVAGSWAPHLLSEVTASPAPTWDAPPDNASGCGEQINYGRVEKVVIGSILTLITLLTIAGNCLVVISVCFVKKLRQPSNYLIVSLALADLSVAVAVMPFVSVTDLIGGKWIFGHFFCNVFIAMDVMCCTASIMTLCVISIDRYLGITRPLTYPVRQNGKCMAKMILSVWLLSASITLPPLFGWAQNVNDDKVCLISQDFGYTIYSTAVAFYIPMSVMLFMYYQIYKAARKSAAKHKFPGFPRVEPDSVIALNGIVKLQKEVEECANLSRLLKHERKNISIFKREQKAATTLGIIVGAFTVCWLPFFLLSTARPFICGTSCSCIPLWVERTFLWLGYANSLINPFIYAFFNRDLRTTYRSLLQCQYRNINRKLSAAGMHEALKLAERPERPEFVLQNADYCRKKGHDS
human Dopamine D3 receptor, sequence (P35462 whole entry): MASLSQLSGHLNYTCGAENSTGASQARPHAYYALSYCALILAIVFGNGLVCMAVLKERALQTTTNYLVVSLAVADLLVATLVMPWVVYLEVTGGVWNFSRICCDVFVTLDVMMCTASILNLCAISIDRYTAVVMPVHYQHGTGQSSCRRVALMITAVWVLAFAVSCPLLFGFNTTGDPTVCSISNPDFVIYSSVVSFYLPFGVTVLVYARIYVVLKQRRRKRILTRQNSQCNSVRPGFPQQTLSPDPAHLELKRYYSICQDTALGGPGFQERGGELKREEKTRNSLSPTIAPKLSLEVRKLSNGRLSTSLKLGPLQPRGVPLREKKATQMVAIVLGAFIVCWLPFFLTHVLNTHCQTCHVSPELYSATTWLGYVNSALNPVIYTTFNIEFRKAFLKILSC
human Dopamine D2S receptor, sequence (P14416 1-414 isoform P14416-2): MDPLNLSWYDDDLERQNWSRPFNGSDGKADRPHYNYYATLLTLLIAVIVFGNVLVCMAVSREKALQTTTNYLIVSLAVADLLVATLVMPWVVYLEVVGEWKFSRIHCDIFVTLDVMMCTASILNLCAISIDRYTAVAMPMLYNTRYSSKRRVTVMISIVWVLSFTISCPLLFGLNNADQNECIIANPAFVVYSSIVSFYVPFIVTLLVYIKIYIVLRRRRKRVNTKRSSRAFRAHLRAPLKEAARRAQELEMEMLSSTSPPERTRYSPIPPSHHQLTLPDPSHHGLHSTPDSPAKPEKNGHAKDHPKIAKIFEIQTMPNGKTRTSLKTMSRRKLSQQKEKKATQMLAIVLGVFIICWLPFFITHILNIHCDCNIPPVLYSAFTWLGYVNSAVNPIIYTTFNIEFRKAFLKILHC

Take `CNc1cc(OC)c(C(=O)N[C@H]2CCN(Cc3ccccc3)[C@H]2C)cc1Cl` (racemic) [Nemonapride, (±)-cis-N-(1-Benzyl-2-methylpyrrolidin-3-yl)-5-chloro-2-methoxy-4-methylaminobenzamide]: the Ki (in general, a measure of affinity in units of concentration, obtained from inhibition or displacement) in data set [1] ([3H]-LSD) is 53.2 nM. In addition, the IC50 – broadly, the concentration that inhibits the measured activity by half – in data set [1] (setting [15]) stood at 75.7 nM. Moreover, in [2], the “Top % Activation at maximal concentration, 5-HT1A (agonist mode)” value (from here on “Top % Activation … 5-HT1A (agonist mode)”) is reported as 52%. In data set [3] (IP-one), the “Top % Activation at maximal concentration, 5-HT2A (agonist mode)” value amounted to 48%. Moreover, the “Top % Inhibition at maximal concentration, 5-HT2A (antagonist mode)” value in [4] is 33%. The “Top % Inhibition at maximal concentration, D3 (antagonist mode)” value (“Top % Inhibition … D3 (antagonist mode)” for short) in [5] was found to be 126%.

For the molecule `COc1cc(CC(C)N)c(OC)cc1I` (stereo not drawn) [DOI, reference compound], the “Number of headshakes compared to vehicle” value is “significantly increases headshake responses” in data set [6] (3 mg/kg i.p., 10 minutes prior to test) and “significantly increases the number of headshakes” in data set [7] (DOI 3 mg/kg IP, 10 minutes prior to test).

With `[2H]C([2H])([2H])Nc1cc(OC)c(C(=O)N[C@@H]2CCN(C([2H])([2H])c3ccccc3)[C@@H]2C)cc1Cl` [Example 1, 5-Chloro-N-((2R,3R)-1-(dideutero(phenyl)methyl)-2-methylpyrrolidin-3-yl)-2-methoxy-4-(trideuteromethylamino)benzamide], the affinity in data set [1] ([3H]-LSD) corresponds to a Ki of 82.6 nM. For the same molecule, the IC50 in data set [1] (setting [15]) was found to be 131 nM. In addition, the IC50 in [1] (setting [16]) is 143 nM and 118 nM. Moreover, the “Top % Activation … 5-HT1A (agonist mode)” value in [2] is on record as 64^d %. The “Top % Activation at maximal concentration, 5-HT2A (agonist mode)” value in data set [3] (IP-one) is given as 69^d %. Moreover, the “Top % Activation, 5-HT2A (agonist mode), single determinations” value in data set [3] (IP-one, numbers in parentheses that were averaged, listed as Ex. 1 (A2)) was 53% and 82% and 68% and 72%. The “5-HT2A agonism (in words)” value in data set [3] (compared with non-deuterated analog / summary of Tables 4 and 5) is 5-HT2A partial agonist and higher 5-HT2A agonism. Also, the IC50 in data set [8] was above 3000 nM. For the same molecule, in data set [9], the “Disappearance without cells (buffer), 0 min, %” value turned out to be 100%; the “Disappearance without cells (buffer), 60 min, %” value is recorded as 91%; the “Disappearance without cells (buffer), 120 min, %” value amounted to 92%; the “Disappearance in human hepatocytes, 0 min, %” value was 100%. Besides, in [9], the “Disappearance in human hepatocytes, 60 min, %” value was found to be 8% and the “Disappearance in human hepatocytes, 120 min, %” value is 1%. Further, the “Reward response bias (log b)” value in data set [10] is recorded as “enhances reward response bias (log b) significantly”. Moreover, in [11] (0.5, 2.5 and 5 mg/kg orally, 4 hours prior to test), the “Escape failures compared to vehicle” value was “None of the doses of the deuterated compound of Example 1 (A2) have a significant treatment effect”. In addition, in data set [11] (setting [17]), the “Number of avoidance responses compared to vehicle” value was “significantly decrease” and the “Percent avoidance compared to vehicle” value was “significantly decrease”. Moreover, the “Number of headshakes compared to vehicle” value in data set [6] (1, 5 and 10 mg/kg PO, 4 hours prior to test) is on record as “no significant increase”. In addition, the DOI-induced headshake responses entry in [7] (1, 5 and 10 mg/kg PO, 4 hours prior, DOI 3 mg/kg IP) is given as “significantly attenuate DOI-induced headshake responses”. In [12], the “Top % Inhibition, D2S (antagonist mode), single determinations” value is recorded as 93) %. Further, the “Top % Inhibition, D2S (antagonist mode), single determinations” value in [12] (cAMP, numbers in parentheses that were averaged) is recorded as “(104, %”. Also, the “Top % Inhibition … D3 (antagonist mode)” value in data set [5] is given as 122^d %. For the same molecule, the “Top % Inhibition at maximal concentration, D4 (antagonist mode)” value in data set [13] was 100^d %.

As to `O=C(c1ccc(F)cc1)C1CCN(CCn2c(=O)[nH]c3ccccc3c2=O)CC1` [Ketanserin], the DOI-induced headshake responses entry in data set [7] (1 mg/kg IP, 30 minutes prior to DOI 3 mg/kg IP) is “significantly attenuate DOI-induced headshake responses”.

Consider `CCN1CCC[C@@H]1CNC(=O)c1c(OC)ccc(Br)c1OC` [R-remoxipride], for which the “Binding to the 5-HT2A receptor in vitro (in words)” value in [14] was “do not even bind”.

For `CCN1CCC[C@H]1CNC(=O)c1c(OC)ccc(Br)c1OC` [S-remoxipride], the “Binding to the 5-HT2A receptor in vitro (in words)” value in data set [14] was “do not even bind”.

Turning to `CNc1cc(OC)c(C(=O)N[C@@H]2CCN(Cc3ccccc3)[C@@H]2C)cc1Cl` [cis (R,R) nemonapride, N-[(2R,3R)-1-benzyl-2-methylpyrrolidin-3-yl]-5-chloro-2-methoxy-4-(methylamino)benzamide, reference compound], in data set [1] ([3H]-LSD), the affinity corresponds to a Ki of 102 nM. The IC50 in data set [1] (setting [15]) turned out to be 129 nM. The IC50 in data set [1] (setting [16]) is 112 nM and 145 nM. Also, in data set [2], the “Top % Activation … 5-HT1A (agonist mode)” value is reported as 78^d %. Also, in [3] (IP-one), the “Top % Activation at maximal concentration, 5-HT2A (agonist mode)” value is recorded as 44^d %. In data set [8], this molecule came in with an IC50 of 2470 nM. In addition, in data set [9], the “Disappearance without cells (buffer), 0 min, %” value was found to be 100%; the “Disappearance without cells (buffer), 60 min, %” value was 96%; the “Disappearance without cells (buffer), 120 min, %” value turned out to be 99%; the “Disappearance in human hepatocytes, 0 min, %” value came out at 100%. Further, in data set [9], the “Disappearance in human hepatocytes, 60 min, %” value was found to be 10% and the “Disappearance in human hepatocytes, 120 min, %” value was found to be 2%. In addition, the “Top % Inhibition … D3 (antagonist mode)” value in data set [5] is 99^d %. For the same molecule, the “Top % Inhibition at maximal concentration, D4 (antagonist mode)” value in data set [13] is recorded as 111^d %.

For `Cc1nc2n(c(=O)c1CCN1CCC(c3noc4cc(F)ccc34)CC1)CCCC2` [risperidone, reference compound], in data set [11] (setting [18]), the “Number of avoidance responses compared to vehicle” value is “significantly decrease” and the “Percent avoidance compared to vehicle” value is given as “significantly decrease”.
